# Assays:
# pale smartweed (Po) [1] = experiment: Test Example 11: crop plant selectivity by upland field foliage treatment (corn), herbicidal effects; assay type: in vivo; design: scale not given here; conditions: upland field foliage treatment (corn test), dose 1.6 g ai/10a, 14th day after treatment
# In short: (§1)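 Corn and the weed species were sown together in sand-filled pots and grown in a greenhouse for 2 weeks before foliar treatment. Herbicidal effect was scored on day 14 after treatment against a graded standard scale, with corn phytotoxicity scored alongside.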
# China jute (Ab) [2] = experiment: as above; assay type: in vivo; design: scale not given here; conditions: upland field foliage treatment (corn test), dose 1.6 g ai/10a, 14th day after treatment
# In short: as §1
# slender amaranth (Am) [3] = experiment: as above; assay type: in vivo; design: scale not given here; conditions: upland field foliage treatment (corn test), dose 1.6 g ai/10a, 14th day after treatment
# In short: as §1
# [4] = test system: common lambsquarters (Ch); experiment: as above; assay type: in vivo; design: scale not given here; conditions: upland field foliage treatment (corn test), dose 1.6 g ai/10a, 14th day after treatment
# In short: as §1
# rice flatsedge (Ci) [5] = experiment: Test Example 2: herbicidal effects by upland field soil treatment; assay type: in vivo; conditions: 100 g of the active ingredient per 10 ares, evaluated on the 21st day after application;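 also: grade of growth control; 5 = at least 90%; 4 = 70 to 90%; 3 = 50 to 70%; 2 = 30 to 50%; 1 = 10 to 30%; 0 = under 10%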
# From the text: (§2) (Test on Herbicidal Effects by Upland Field Soil Treatment)
# pale smartweed (Po) [6] = experiment: as above; assay type: in vivo; conditions: 100 g of the active ingredient per 10 ares, evaluated on the 21st day after application
# From the text: as §2
# barnyardgrass (Ec) [7] = experiment: as above; assay type: in vivo; conditions: 100 g of the active ingredient per 10 ares, evaluated on the 21st day after application
# From the text: as §2
# Digitaria ciliaris (Di) = experiment: as above; assay type: in vivo; conditions: 100 g of the active ingredient per 10 ares, evaluated on the 21st day after application;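 also: grade of growth control; 5 = at least 90%; 4 = 70 to 90%; 3 = 50 to 70%; 2 = 30 to 50%; 1 = 10 to 30%; 0 = under 10%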
# From the text: as §2
# slender amaranth (Am) [8] = experiment: as above; assay type: in vivo; conditions: 100 g of the active ingredient per 10 ares, evaluated on the 21st day after application
# From the text: as §2
# [9] = test system: common lambsquarters (Ch); experiment: as above; assay type: in vivo; conditions: 100 g of the active ingredient per 10 ares, evaluated on the 21st day after application
# From the text: as §2
# pale smartweed (Po) [10] = experiment: Test Example 10: crop plant selectivity by upland field foliage treatment (soybean), herbicidal effects; assay type: in vivo; conditions: dose 1.6 g ai/10a, 14th day after treatment
# Procedure: (§3) (Test on Crop Plant Selectivity by Upland Field Foliage Treatment)
# (§4) In a plastic pot (surface area: 600 cm^2) filled with sand, soybean (Gl), pale smartweed (Po), slender amaranth (Am), common lambsquarters (Ch) and China jute (Ab) were sown and cultured in a green house for 2 weeks. […] The plants were then cultured in a green house, and the evaluation of the herbicidal effects and phytotoxicity was conducted on the 14th day after the treatment in accordance with the standards as identified in Table 47.
# China jute (Ab) [11] = experiment: as above; assay type: in vivo; conditions: dose 1.6 g ai/10a, 14th day after treatment
# Procedure: as §3, §4
# slender amaranth (Am) [12] = experiment: as above; assay type: in vivo; conditions: dose 1.6 g ai/10a, 14th day after treatment
# Procedure: as §3, §4
# [13] = test system: common lambsquarters (Ch); experiment: as above; assay type: in vivo; conditions: dose 1.6 g ai/10a, 14th day after treatment
# Procedure: as §3, §4
# Diaitaria ciliaris (Di) = experiment: Test Example 3: herbicidal effects by upland field foliage treatment; assay type: in vivo; design: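 grade of growth control; 5 = at least 90%; 4 = 70 to 90%; 3 = 50 to 70%; 2 = 30 to 50%; 1 = 10 to 30%; 0 = under 10%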; conditions: 100 g active ingredient per 10 ares, evaluated 14th day after treatment
# In short: (§5)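 Scoring used a standard effect scale on the 14th day post-treatment, with plants held in a greenhouse throughout. Foliar application was made to weeds raised from seed in sand-filled pots for 2 weeks.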
# rice flatsedge (Ci) [14] = experiment: as above; assay type: in vivo; design: scale not given here; conditions: 100 g active ingredient per 10 ares, evaluated 14th day after treatment
# In short: as §5
# pale smartweed (Po) [15] = experiment: as above; assay type: in vivo; design: scale not given here; conditions: 100 g active ingredient per 10 ares, evaluated 14th day after treatment
# In short: as §5
# barnyardgrass (Ec) [16] = experiment: as above; assay type: in vivo; design: scale not given here; conditions: 100 g active ingredient per 10 ares, evaluated 14th day after treatment
# In short: as §5
# slender amaranth (Am) [17] = experiment: as above; assay type: in vivo; design: scale not given here; conditions: 100 g active ingredient per 10 ares, evaluated 14th day after treatment
# In short: as §5
# [18] = test system: common lambsquarters (Ch); experiment: as above; assay type: in vivo; design: scale not given here; conditions: 100 g active ingredient per 10 ares, evaluated 14th day after treatment
# In short: as §5
# bulrush (Sc) = experiment: Test Example 1: herbicidal effects by paddy field soil treatment; assay type: in vivo; conditions: 100 g of the active ingredient per 10 ares, 21st day after the application, index 0-5 of Table 47;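 also: grade of growth control; 5 = at least 90%; 4 = 70 to 90%; 3 = 50 to 70%; 2 = 30 to 50%; 1 = 10 to 30%; 0 = under 10%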
# In short: (§6)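 Flooded paddy-soil pots (3 cm water) sown after puddling/leveling; treatment 100 g a.i./10 ares; greenhouse culture; herbicidal effect rated visually on a scoring scale at 21 d post-application.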
# barnyardgrass (Ec) [19] = experiment: as above; assay type: in vivo; conditions: 100 g of the active ingredient per 10 ares, 21st day after the application, index 0-5 of Table 47
# In short: as §6
# monochoria (Mo) = experiment: as above; assay type: in vivo; conditions: 100 g of the active ingredient per 10 ares, 21st day after the application, index 0-5 of Table 47;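 also: grade of growth control; 5 = at least 90%; 4 = 70 to 90%; 3 = 50 to 70%; 2 = 30 to 50%; 1 = 10 to 30%; 0 = under 10%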
# In short: as §6
# corn (Ze) = experiment: Test Example 11: crop plant selectivity by upland field foliage treatment (corn), phytotoxicity; conditions: upland field foliage treatment, dose 1.6 g ai/10a, 14th day after treatment
# In short: as §1
# soybean (Gl) = experiment: Test Example 10: crop plant selectivity by upland field foliage treatment (soybean), phytotoxicity; conditions: dose 1.6 g ai/10a, 14th day after treatment
# Procedure: as §3, §4
# wheat (Tr) = experiment: Test Example 9: crop plant selectivity by upland field foliage treatment (wheat), phytotoxicity; conditions: dose 1.6 g ai/10a, 14th day after treatment
# In short: (§7)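 Sand-filled pot, wheat + weeds co-sown; greenhouse 2 wk, then foliage treatment; greenhouse culture continued; visual scoring of weed control and crop injury at 14 d post-treatment per grading scale.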
# pale smartweed (Po) [20] = experiment: Test Example 9: crop plant selectivity by upland field foliage treatment (wheat), herbicidal effects; assay type: in vivo; design: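 grade of growth control; 5 = at least 90%; 4 = 70 to 90%; 3 = 50 to 70%; 2 = 30 to 50%; 1 = 10 to 30%; 0 = under 10%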; conditions: dose 1.6 g ai/10a, 14th day after treatment
# In short: as §7
# China jute (Ab) [21] = experiment: as above; assay type: in vivo; design: scale not given here; conditions: dose 1.6 g ai/10a, 14th day after treatment
# In short: as §7
# slender amaranth (Am) [22] = experiment: as above; assay type: in vivo; design: scale not given here; conditions: dose 1.6 g ai/10a, 14th day after treatment
# In short: as §7
# [23] = test system: common lambsquarters (Ch); experiment: as above; assay type: in vivo; design: scale not given here; conditions: dose 1.6 g ai/10a, 14th day after treatment
# In short: as §7
Structure (SMILES),Herbicidal effects Po (pale smartweed (Po) [1]),Herbicidal effects Ab (China jute (Ab) [2]),Herbicidal effects Am (slender amaranth (Am) [3]),Herbicidal effects Ch [4],Herbicidal effects Ci (rice flatsedge (Ci) [5]),Herbicidal effects Po (pale smartweed (Po) [6]),Herbicidal effects Ec (barnyardgrass (Ec) [7]),Herbicidal effects Di (Digitaria ciliaris (Di)),Herbicidal effects Am (slender amaranth (Am) [8]),Herbicidal effects Ch [9],Herbicidal effects Po (pale smartweed (Po) [10]),Herbicidal effects Ab (China jute (Ab) [11]),Herbicidal effects Am (slender amaranth (Am) [12]),Herbicidal effects Ch [13],Herbicidal effects Di (Diaitaria ciliaris (Di)),Herbicidal effects Ci (rice flatsedge (Ci) [14]),Herbicidal effects Po (pale smartweed (Po) [15]),Herbicidal effects Ec (barnyardgrass (Ec) [16]),Herbicidal effects Am (slender amaranth (Am) [17]),Herbicidal effects Ch [18],also measured
Cn1c(C(F)(F)F)ccc(-c2cc(C(=O)OC3CCCC3)c(Cl)cc2F)c1=O [Compound 1-184],5,5,5,5,5,5,5,5,5,5,5,5,5,5,5,5,5,5,5,5,Herbicidal effects Sc (bulrush (Sc)): 5; Herbicidal effects Ec (barnyardgrass (Ec) [19]): 5; Herbicidal effects Mo (monochoria (Mo)): 5; Phytotoxicity Ze (corn (Ze)): 1; Phytotoxicity Gl (soybean (Gl)): 2; Phytotoxicity Tr (wheat (Tr)): 2; Herbicidal effects Po (pale smartweed (Po) [20]): 5; Herbicidal effects Ab (China jute (Ab) [21]): 5; Herbicidal effects Am (slender amaranth (Am) [22]): 5; Herbicidal effects Ch [23]: 5
CCCOCc1cc2c(-c3ccc(C(F)(F)F)n(C)c3=O)c(F)cc(Cl)c2o1 [Compound 4-32],5,5,5,5,5,5,5,5,5,5,5,5,5,5,5,5,5,5,5,5,Herbicidal effects Sc (bulrush (Sc)): 5; Herbicidal effects Ec (barnyardgrass (Ec) [19]): 5; Herbicidal effects Mo (monochoria (Mo)): 5; Phytotoxicity Ze (corn (Ze)): 2; Phytotoxicity Gl (soybean (Gl)): 2; Phytotoxicity Tr (wheat (Tr)): 2; Herbicidal effects Po (pale smartweed (Po) [20]): 5; Herbicidal effects Ab (China jute (Ab) [21]): 5; Herbicidal effects Am (slender amaranth (Am) [22]): 5; Herbicidal effects Ch [23]: 5
